{"source": "patent US20150315218A1", "about": "“SALTS OF PRODRUGS OF PIPERAZINE AND SUBSTITUTED PIPERIDINE ANTIVIRAL AGENTS” (Bristol-Myers Squibb Company, priority 2004, published 2015)", "key": {"[1]": {"assay": "IV and PO pharmacokinetic studies of prodrug salts (Iab, Ibb, Icb) in the rat, with historical parent data", "type": "in vivo, Sprague-Dawley rats", "conditions": "for Tmax: read-out: Tmax (hr), PO; for Cmax: read-out: Cmax (μM), PO", "protocol": "All blood samples (0.3 mL) were colleted in microtainers containing K2EDTA (Becton Dickinson, Franklin Lakes, N.J.) and placed on chipped ice. After centrifugation, plasma was separated and stored at −20° C. until analysis. The mono-lysine salt of Iab (Form 3, Lot 1) was used for the pharmacokinetic studies. The dosing solutions of Iab were prepared in either sterile water (for IV administration in dogs and monkeys) or distilled water (for all other dose administration).\nMale Sprague-Dawley rats (300-350 g, Hilltop Lab Animals, Inc., Scottsdale, Pa.) with cannulas implanted in the jugular vein were used. The rats were fasted overnight in the PO pharmacokinetic studies. Blood samples were collected from the jugular vein.\nIn the IV study, Iab was delivered at 1.4 mg/kg (free acid, or 1.1 mg/kg of IVa equivalent) as a bolus over 0.5 min (n=3).\nIn the PO study, Iab was administered at 7.9 mg/kg (free acid, or 6.3 mg/kg of IVa equivalent) by oral gavage (n=3). The concentration of the dosing solution was 4.0 mg/mL, and the dosing volume was 2 mL/kg.\nThe pharmacokinetic parameters of Iab and IVa were calculated by Non-Compartmental Analysis using the […]™ software program (version 4.0.2, InnaPhase Co., Philadelphia, Pa.). The Cmax and Tmax values were recorded directly from experimental observations. The AUC0-n and AUCtot values were calculated using the mixed log-linear trapezoidal summations. The total body clearance (Cl), mean residence time (MRT), and the steady state volume of distribution (Vss) were also calculated after intravenous administration. The absolute oral bioavailability (expressed as %) was estimated by taking the ratio of dose-normalized AUC values after oral doses to those after intravenous doses.\nAll blood samples (0.3 mL) were colleted in microtainers containing K2EDTA (Becton Dickinson, Franklin Lakes, N.J.) and placed on chipped ice. After centrifugation, plasma was separated and stored at −20° C. until analysis. The mono-lysine salt of Ibb (Form 3) was used for the pharmacokinetic studies. The dosing solutions of Ibb were prepared in either sterile water (for IV administration in dogs and monkeys) or distilled water (for all other dose administration).\n(§1) The Cmax and Tmax values were recorded directly from experimental observations. The AUC0-n and AUCtot values were calculated using the mixed log-linear trapezoidal summations. The total body clearance (Cl), mean residence time (MRT), and the steady state volume of distribution (Vss) were also calculated after intravenous administration. The absolute oral bioavailability (expressed as %) was estimated by taking the ratio of dose-normalized AUC values after oral doses to those after intravenous doses.\nIn the IV study, Icb was delivered at 1.4 mg/kg (free acid, or 1.1 mg/kg of IVe equivalent) as a bolus over 0.5 min (n=3).\nIn the PO study, Icb was administered at 6.9 mg/kg (free acid, or 5.6 mg/kg of IVe equivalent) by oral gavage (n=3).\nas §1"}, "[2]": {"assay": "Single-dose oral toxicokinetic study of prodrugs in rats", "type": "in vivo, rat", "conditions": "CD, rat, plasma; for concentration at 24 h / half-life / Cmax: analyte = label; for concentration at 24 h: read-out: C24 h; for half-life: read-out: T½ (converted); for AUC: read-out: AUC", "protocol": "A 1-day oral toxicokinetic study in rats was conducted using the prodrug Iab (monolysine salt). Iab was administered at dosages of 16, 72, and 267 mg/kg (free acid) by oral gavage to three male rats/group using water as the vehicle (solution formulation). The dosages of prodrug free acid correspond to IVa (parent) molar equivalent dosages of 13, 57, and 211 mg/kg, respectively. The endpoint evaluated was plasma toxicokinetics of Iab and IVa in the individual rats.\nA 1-day oral toxicokinetic study in rats was conducted by using the prodrug Ibb (monolysine salt). Ibb was administered at dosages of 19, 64, and 236 mg/kg (free acid) by oral gavage to three male rats/group using water as the vehicle (solution formulation).\nA 1-day oral toxicokinetic study in rats was conducted using the prodrug Icb (disodium salt). Icb was administered at dosages of 5, 25, and 200 mg/kg (free acid) by oral gavage to three male rats/group using water as the vehicle (solution formulation)."}, "[3]": {"assay": "Single-dose toxicokinetic and tolerability study of prodrugs in dogs", "type": "in vivo, dog", "conditions": "for Cmax: IVa in female dogs", "protocol": "A multi-phase study was conducted to evaluate the tolerability of the prodrug, Iab (monolysine salt) at dosages of 24, 90, or 240 mg/kg (free acid, molar equivalent to 19, 71, or 190 mg/kg of parent IVa, respectively) and the toxicokinetics of lab and IVa (4). Iab was administered to two female dogs/group once daily either as an aqueous solution (24 or 90 mg/kg) or dry-filled capsules (24, 90 [once and twice daily] or 240 mg/kg). The endpoints were: clinical signs, body weight, food consumption, and plasma toxicokinetics of lab and IVa. In all cases, a 1-week washout period was used between doses for all phases of the study. […]\nOn day 1, Icb was administered to one dog/sex/group once daily in dry-filled capsules at the above dosages. A 1-week washout period was used between doses in the study. On day 8, Icb was administered to one dog/sex/group once daily as an aqueous solution at 25 mg/kg or twice daily in dry-filled capsules at 46 or 125 mg/kg BID."}}, "note": "Where two headings read alike, the source gives them in different places. Marks after values point to notes of the source that are not given here.", "data": [{"smiles": "COc1ncc(OC)c2c(C(=O)C(=O)N3CCN(C(=O)c4ccccc4)CC3)c[nH]c12", "note": "[IVa, N-(benzoyl)-N′-[(4,7-dimethoxy-6-azaindol-3-yl)-oxoacetyl]piperazine]", "values": [{"measurement": "AUC", "setting": "[1]; Sprague-Dawley, plasma, historical parent, IV 1 mg/kg, read-out: AUCtot (μM·hr), IV", "value": "3.3 ± 1.1", "unit": "µM·h"}, {"measurement": "MRT", "setting": "[1]; Sprague-Dawley, plasma, historical parent, IV 1 mg/kg, read-out: MRT (hr), IV", "value": "2.2 ± 1.5", "unit": "h"}, {"measurement": "Vd", "setting": "[1]; Sprague-Dawley, plasma, historical parent, IV 1 mg/kg, read-out: Vdss (L/kg), IV", "value": "1.5 ± 0.25", "unit": "L/kg"}, {"measurement": "half-life", "setting": "[1]; Sprague-Dawley, plasma, historical parent, IV 1 mg/kg, read-out: t1/2 (hr), IV (converted)", "value": "2.4 ± 0.32", "unit": "h"}, {"measurement": "Tmax", "setting": "[1]; Sprague-Dawley, plasma, historical parent, PO 5 mg/kg", "value": 2, "unit": "h"}, {"measurement": "half-life", "setting": "[1]; Sprague-Dawley, plasma, historical parent, PO 5 mg/kg, read-out: t1/2 (hr), PO (converted)", "value": "1.7 ± 0.92", "unit": "h"}, {"measurement": "CLtot (mL/min/kg), IV", "setting": "[1]; historical parent, IV 1 mg/kg", "value": "13 ± 4.0", "unit": "mL/min/kg"}, {"measurement": "AUCtot (μM·hr), PO", "setting": "[1]; historical parent, PO 5 mg/kg", "value": "15 ± 6.3", "unit": "µM·h"}, {"measurement": "Bioavailability (%)", "setting": "[1]; historical parent, PO 5 mg/kg", "value": 90, "unit": "%"}, {"measurement": "Cmax", "setting": "[1]; historical parent, PO 5 mg/kg", "value": "4.5 ± 1.5", "unit": "µM"}, {"measurement": "AUC", "setting": "[1]; male, Sprague-Dawley, plasma, 7.9 mg/kg, after oral prodrug, analyte = label, ND = not detected (<5 nM), read-out: AUCtot (μM·hr), PO", "value": "13 ± 1.4", "unit": "µM·h"}, {"measurement": "Cmax", "setting": "[1]; male, Sprague-Dawley, plasma, 7.9 mg/kg, after oral prodrug, analyte = label, ND = not detected (<5 nM)", "value": "3.9 ± 0.98", "unit": "µM"}, {"measurement": "half-life", "setting": "[1]; male, Sprague-Dawley, plasma, 7.9 mg/kg, parent after oral prodrug, read-out: t1/2 (hr), PO (converted)", "value": "1.5 ± 0.24", "unit": "h"}, {"measurement": "AUC", "setting": "[1]; male, Sprague-Dawley, plasma, after IV prodrug (~1 mg/kg parent equivalent), analyte = label, read-out: AUCtot (μM·hr), IV", "value": "5.4 ± 0.93", "unit": "µM·h"}, {"measurement": "half-life", "setting": "[1]; male, Sprague-Dawley, plasma, after IV prodrug, analyte = label, read-out: t1/2 (hr), IV (converted)", "value": "4.4 ± 1.9", "unit": "h"}, {"measurement": "bioavailability", "setting": "[1]; male, Sprague-Dawley, plasma, oral prodrug, calculated from historical IV data of parent, read-out: Bioavailability (%) of parent from prodrug", "value": 62, "unit": "%"}, {"measurement": "Tmax", "setting": "[1]; male, Sprague-Dawley, plasma, parent after oral prodrug (~5-6 mg/kg parent equivalent)", "value": 0.83, "unit": "h"}, {"measurement": "PO AUC Ratio of parent", "setting": "[1]; oral prodrug vs historical parent", "value": "0.69*"}, {"measurement": "bioavailability", "setting": "[1]; plasma, po, range over rats, dogs and monkeys, read-out: oral bioavailabilities of parent after administration of prodrug", "value": "62 to 94", "unit": "%"}, {"measurement": "concentration at 24 h", "setting": "[2]; male rats, Iab 16 mg/kg PO", "value": 0.09, "unit": "µM"}, {"measurement": "half-life", "setting": "[2]; male rats, Iab 16 mg/kg PO", "value": 3.2, "unit": "h"}, {"measurement": "concentration at 24 h", "setting": "[2]; male rats, Iab 72 mg/kg PO", "value": 0.027, "unit": "µM"}, {"measurement": "half-life", "setting": "[2]; male rats, Iab 72 mg/kg PO", "value": 2.3, "unit": "h"}, {"measurement": "AUC", "setting": "[2]; male rats, Iab 267 mg/kg PO, AUC from zero to ∞", "value": 1160, "unit": "µM·h"}, {"measurement": "concentration at 24 h", "setting": "[2]; male rats, Iab 267 mg/kg PO", "value": 1.9, "unit": "µM"}, {"measurement": "half-life", "setting": "[2]; male rats, Iab 267 mg/kg PO", "value": 3.4, "unit": "h"}, {"measurement": "Cmax", "setting": "[2]; male rats, single oral dose Iab 16 mg/kg (13 mg/kg IVa molar equiv.), water", "value": 26, "unit": "µM"}, {"measurement": "Cmax", "setting": "[2]; male rats, single oral dose Iab 72 mg/kg (57 IVa equiv.)", "value": 104, "unit": "µM"}, {"measurement": "Cmax", "setting": "[2]; male rats, single oral dose Iab 267 mg/kg (211 IVa equiv.)", "value": 214, "unit": "µM"}, {"measurement": "AUC", "setting": "[2]; male, po, 16 mg/kg", "value": 67, "unit": "µM·h"}, {"measurement": "AUC", "setting": "[2]; male, po, 72 mg/kg", "value": 261, "unit": "µM·h"}, {"measurement": "Cmax", "setting": "[3]; Iab 24 mg/kg (19 IVa equiv.), Dry-filled capsule, Dogs #4201, #4202", "value": 85.6, "unit": "µM"}, {"measurement": "Cmax", "setting": "[3]; Iab 24 mg/kg (19 IVa equiv.), Solution, Dogs #1201, #1202", "value": 66.5, "unit": "µM"}, {"measurement": "Cmax", "setting": "[3]; Iab 90 mg/kg (71 IVa equiv.), Solution, Dogs #3201, #3202", "value": 125, "unit": "µM"}, {"measurement": "AUC0-∞", "setting": "[3]; IVa, Iab 24 mg/kg Dry-filled capsule, Dogs #4201, #4202", "value": 514, "unit": "µM·h"}, {"measurement": "concentration at 24 h", "setting": "[3]; IVa, Iab 24 mg/kg Dry-filled capsule, Dogs #4201, #4202, read-out: C24h", "value": 0.87, "unit": "µM"}]}]}
